One data set can be described thus: in vitro. Conditions: Caco-2.
The nature of data set [1]: Bidirectional permeability across Caco-2 cell monolayers (no excipients). Particulars: human; for recovery: Caco-2, no excipients, cassette, mean ± SD, n = 3.
The nature of the next data set: in vivo. Conditions: Sprague-Dawley, rat, pH 6.8, Effective permeability coefficient (Peff), rat jejunum, mean ± SEM, n = 4.
The nature of data set [2]: Unidirectional (A→B) permeability across Caco-2 cell monolayers in presence and absence of excipients. Conditions: human, Caco-2, Apparent permeability coefficient (Papp), mean ± SEM, n = 4.
Data set [3] can be described thus: Recirculating in situ rat intestinal perfusion (jejunum) in presence and absence of excipients. Conditions: Sprague-Dawley, pH 6.8, Effective permeability coefficient (Peff), mean ± SEM, n = 4.
Protocol: (§1) Sprague–Dawley rats (300–350 g) were used to perform closed-loop, in situ intestinal perfusion. Rats were fasted for 12–18 h before the experiment, and water was supplied ad libitum.
(§2) Four rats (n = 4) were used per treatment group, with a total of 17 groups: one control group (assay buffer, no excipients) and three or four treatment groups for each of the five excipients, with a different concentration for each group.
(§3) Rats were anesthetized with an intraperitoneal injection of ketamine/xylazine (1 ml/kg) and placed on a heating pad to maintain normal body temperature. After making a midline incision, the intestines were externalized. A 10-cm segment of the jejunum was tied off, cannulated at both ends to form a loop, and flushed with saline and air. The loop was equilibrated statically with dosing solution for 30 min, then flushed with air and perfused by recirculation (peristaltic pump) with 10 ml dosing solution at 0.2 ml/min. Samples of the perfusate were taken from the reservoir at 15, 30, 45, 60, 75, and 90 min for analysis by LC-MS/MS.

Protocol for in vitro: Samples were collected from the donor and receiver chambers at multiple time points and analyzed by LC-MS/MS.
Bidirectional permeability was measured in the absence of excipients only (n = 3 replicates), whereas unidirectional permeability was measured both in the presence and absence of excipients (n = 4 replicates).
Protocol for in vivo: as §1, §2, §3

`Nc1nc2c(ncn2COCCO)c(=O)[nH]1` [Acyclovir, acyclovir]: in the data set “in vitro”, the Papp A→B was 29.8 ± 1.8 ×10⁻⁶ cm/s. In addition, the recovery was 82.2 ± 8.6% in data set [1] (Caco-2, A→B Recovery) and 94.9 ± 12.2% in data set [1] (Caco-2, B→A Recovery).

`Cc1cc(=O)n(-c2ccccc2)n1C` [Antipyrine, antipyrine]: the Papp at 90 min came to 143 ± 17 ×10⁻⁶ cm/s in the data set “in vivo” (Control (no excipient)); 168 ± 35 ×10⁻⁶ cm/s in the data set “in vivo” (HPMC 0.06 mg/ml); 117 ± 22 ×10⁻⁶ cm/s in the data set “in vivo” (PEG 400 0.06 mg/ml); 82 ± 15 ×10⁻⁶ cm/s in the data set “in vivo” (PEG 400 0.30 mg/ml (first run)); 153 ± 18 ×10⁻⁶ cm/s in the data set “in vivo” (PEG 400 0.30 mg/ml, second run); 90 ± 26 ×10⁻⁶ cm/s in “in vivo” (PEG 400 […]). The Papp at 90 min in the data set “in vivo” (Povidone 0.06 mg/ml) amounted to 133 ± 42 ×10⁻⁶ cm/s; in “in vivo” (SLS 0.01 mg/ml), 175 ± 23 ×10⁻⁶ cm/s; in the data set “in vivo” (SLS 0.02 mg/ml), 93 ± 26 ×10⁻⁶ cm/s; in “in vivo” (SLS 0.04 mg/ml), 108 ± 18 ×10⁻⁶ cm/s; in the data set “in vivo” (SLS […]) it was 157 ± 46 ×10⁻⁶ cm/s.

With `CC(C)(C)NCC(O)COc1cccc2c1CC(O)C(O)C2` (stereo not shown) [Nadolol, nadolol], the apparent permeability from apical to basolateral (Papp A→B) is 0.21 ± 0.06 ×10⁻⁶ cm/s in data set [2] (Control a (no excipient)); 0.21 ± 0.04 ×10⁻⁶ cm/s in data set [2] (Control b (no excipient)); 0.14 ± 0.05 ×10⁻⁶ cm/s in data set [2] (D-Lactose 1.0 mg/ml (control set b)); 0.13 ± 0.01 ×10⁻⁶ cm/s in data set [2] (D-Lactose 2.0 mg/ml (control set b)); 0.14 ± 0.05 ×10⁻⁶ cm/s in data set [2] (HPMC 0.06 mg/ml (control set a)); 0.13 ± 0.05 ×10⁻⁶ cm/s in data set [2] (HPMC 1.0 mg/ml (control set b)). The Papp A→B in data set [2] (HPMC 2.0 mg/ml (control set b)) came out at 0.11 ± 0.02 ×10⁻⁶ cm/s; in data set [2] (PEG 400 0.06 mg/ml (control set a)), 0.13 ± 0.01 ×10⁻⁶ cm/s; in data set [2] (PEG 400 […] (control set a)) it was 0.14 ± 0.04 ×10⁻⁶ cm/s; in data set [2] (PEG 400 […] (control set b)), 0.27 ± 0.04 ×10⁻⁶ cm/s; in data set [2] (Povidone 0.06 mg/ml (control set a)) it was 0.09 ± 0.02 ×10⁻⁶ cm/s; in data set [2] (Povidone 0.2 mg/ml (control set b)), 0.15 ± 0.05 ×10⁻⁶ cm/s. The Papp A→B worked out at 0.23 ± 0.07 ×10⁻⁶ cm/s in data set [2] (SLS 0.01 mg/ml (control set a)); 0.31 ± 0.05 ×10⁻⁶ cm/s in data set [2] (SLS 0.02 mg/ml (control set a)); 0.31 ± 0.1 ×10⁻⁶ cm/s in data set [2] (SLS 0.04 mg/ml (control set a)); 33 ± 0.7 ×10⁻⁶ cm/s in the data set “in vitro”; 0.29 ± 0.16 ×10⁻⁶ cm/s in data set [1] (Caco-2). The Papp at 90 min in data set [3] (other: closed-loop recirculating in situ jejunal perfusion, HPMC 0.06 mg/ml) worked out at 40 ± 7 ×10⁻⁶ cm/s; in data set [3] (other: closed-loop recirculating in situ jejunal perfusion, HPMC […]), 7 ± 17 ×10⁻⁶ cm/s; in data set [3] (other: closed-loop recirculating in situ jejunal perfusion, PEG 400 0.06 mg/ml), 24 ± 8 ×10⁻⁶ cm/s; in data set [3] (other: closed-loop recirculating in situ jejunal perfusion, PEG 400 0.30 mg/ml (first run)), 1 ± 1 ×10⁻⁶ cm/s; in data set [3] (other: closed-loop recirculating in situ jejunal perfusion, PEG 400 […]) it was 25 ± 8 ×10⁻⁶ cm/s; in data set [3] (other: closed-loop recirculating in situ jejunal perfusion, SLS 0.01 mg/ml), 32 ± 15 ×10⁻⁶ cm/s. Further, the Papp at 90 min was found to be 37 ± 10 ×10⁻⁶ cm/s in data set [3] (other: closed-loop recirculating in situ jejunal perfusion, SLS 0.02 mg/ml); 1 ± 2 ×10⁻⁶ cm/s in data set [3] (other: closed-loop recirculating in situ jejunal perfusion, SLS 0.04 mg/ml); 13 ± 1.5 ×10⁻⁶ cm/s in data set [3] (Povidone […]). In addition, in data set [1] (Caco-2), the Papp B→A stood at 0.71 ± 0.15 ×10⁻⁶ cm/s. For the same compound, the recovery in data set [1] (Caco-2, A→B Recovery) was determined as 83.9 ± 9.1%; in data set [1] (Caco-2, B→A Recovery) it was 90.7 ± 12.2%.
